Measurements published in publication doi:10.1101/2023.11.02.565309v1 (biorxiv, 2023).

Biological target: WT GluA2(Q)i (Rattus norvegicus, UniProt P19491)
Type: cell-based
Conditions: positive allosteric modulator at 100 µM

Sequence of WT GluA2(Q)i (P19491 22-883 isoform P19491-2): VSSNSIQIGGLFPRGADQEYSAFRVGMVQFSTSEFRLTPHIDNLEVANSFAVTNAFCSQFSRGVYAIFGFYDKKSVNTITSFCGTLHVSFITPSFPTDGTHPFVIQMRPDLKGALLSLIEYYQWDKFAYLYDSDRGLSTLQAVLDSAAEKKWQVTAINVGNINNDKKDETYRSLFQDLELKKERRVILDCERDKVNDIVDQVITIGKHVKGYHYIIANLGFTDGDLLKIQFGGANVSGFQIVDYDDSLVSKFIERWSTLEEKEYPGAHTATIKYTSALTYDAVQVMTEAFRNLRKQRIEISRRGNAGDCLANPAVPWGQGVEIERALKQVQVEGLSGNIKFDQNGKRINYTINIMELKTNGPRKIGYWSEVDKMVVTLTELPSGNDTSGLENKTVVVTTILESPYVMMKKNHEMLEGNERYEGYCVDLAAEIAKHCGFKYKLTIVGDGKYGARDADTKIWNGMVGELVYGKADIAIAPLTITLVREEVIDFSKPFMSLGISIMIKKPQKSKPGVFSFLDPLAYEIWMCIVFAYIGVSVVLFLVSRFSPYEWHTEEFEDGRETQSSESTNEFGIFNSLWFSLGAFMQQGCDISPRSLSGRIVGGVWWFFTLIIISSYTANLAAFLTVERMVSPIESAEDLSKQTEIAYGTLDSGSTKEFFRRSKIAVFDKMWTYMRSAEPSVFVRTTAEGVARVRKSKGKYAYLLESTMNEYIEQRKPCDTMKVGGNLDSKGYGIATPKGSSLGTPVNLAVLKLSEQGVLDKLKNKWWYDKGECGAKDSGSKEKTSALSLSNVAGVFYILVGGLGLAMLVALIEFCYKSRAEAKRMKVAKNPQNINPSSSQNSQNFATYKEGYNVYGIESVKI

NS(=O)(=O)c1cc2c(cc1Cl)NC(C1CC3C=CC1C3)NS2(=O)=O (stereo not shown) [cyclothiazide]
fold potentiation: ~ 3 fold
